Measurements reported in patent US20250154266A1, “ACTIVIN SIGNALING ACTIVITY” (The Johns Hopkins University, priority 2022, published 2025).

Tests used:
[1] = test system: Activin receptor-like kinase; conditions: Table I, cited from earlier work; for Function: reported function in words; for Target: target profile in words
[2] = test system: ALK1, ALK2, BMPR1A, ALK4, TGFBR1, BMPR1B, and ALK7; conditions: in words; cited from earlier work
[3] = test system: ALK1, ALK2, ALK3 and ALK6; conditions: in words; cited from earlier work
[4] = test system: SMAD phosphorylation in CD4+ T cells; experiment: Western blot analysis of SMAD phosphorylation in CD4+ T cells; assay type: cell-based
Procedure: Since Activins have been reported to promote SMAD signaling in non-T cells (14), it was tested whether Activins signaling in T cells could have a similar effect. SMAD activity was assessed by western blot analysis of SMAD phosphorylation.

naive CD4+ T cells = experiment: Foxp3 induction / Treg generation from naive CD4+ T cells; assay type: cell-based; conditions: for Foxp3 induction (Foxp3+ cells): single agent, TGF-β at suboptimal concentration, Activin A in the absence of TGF-β
Text: Since […] mediated events are important during the up-regulation of Foxp3 and the generation of Tregs from naive CD4+ T cell precursors, it was investigated whether Activin A can drive the process. Without TGF-β, as expected, Foxp3 induction was minimal.

[5] = single agent, Activin A 5 or 10 ng/ml, TGF-β 0.5 or 2 ng/ml

## Cc1cccc(-c2nn3c(c2-c2ccnc4ccc(C(N)=O)cc24)CCC3)n1 (atropisomer, axis not shown) [LY-2157299]
[1]
  Function: LY-2157299 is now under phase II clinical studies of its anti- carcinoma activities against glioblastoma and hepatocellular carcinoma, and has also been reported that it inhibits the tumor growth in human lung anaplastic carcinoma cells and breast carcinoma cells.
  Target: ALK4, 5, 7

## c1ccc(-c2nc3c(c(-n4ccc5cnccc54)n2)CCC3)nc1 [AZ12601011]
[2]
  targets: targets ALK4 and ALK7 as well as TGFBR1

## Cc1cccc(-c2nn(C(=S)Nc3ccccc3)cc2-c2ccnc3ccccc23)n1 [Clone A-83-01, 3-(6-Methylpyridin-2-yl)-N-phenyl-4-(quinolin-4-yl)-1H-pyrazole-1-carbothioamide]
[3]
  inhibition of ALK1, ALK2, ALK3 and ALK6: weak inhibitor
[1]
  Function: A-83-01 can inhibit the activities of ALK4, 5 and 7. For other ALK receptors such as ALK1, 2, 3 and 6, A-83-01 showed weak inhibition. A-83- 01 was proved to reduce EMT.
  Target: Selective inhibitor for ALK4, 5 and 7, and weak effect on ALK1, 2, 3 and 6

## c1ccc(-c2cc(-c3c[nH]nc3-c3ccccn3)ccn2)cc1 [GW-6604]
[1]
  Function: GW-6604 can prevent matrix deposition and promote hepatocyte regeneration as anti-cancer drug development.
  Target: ALK4, 5, 7

## Cc1cccc(-c2[nH]c(C(C)(C)C)nc2-c2ccc3c(c2)OCO3)n1 [SB-505124]
[1]
  Target: ALK4, 5, 7

## Cc1cccc(-c2[nH]c(C(C)(C)C)nc2-c2ccc3nccnc3c2)n1 [SB-525334]
[1]
  Function: SB-525334 has been demonstrated to block phosphorylation and Smad2/3 nuclear translocation, and inhibits renal fibrosis by reducing procollagen and PAI-1 expression.
  Target: ALK4, 5, 7

## Fc1ccc(Cl)cc1-c1nc(Nc2ccncc2)c2nccnc2n1 [SD-208]
[1]
  Function: SD-208 inhibits growth and invasiveness and enhances immunogenicity of murine and human glioma cells.
  Target: ALK4, 5, 7

## TGF-β: cytokine, inducer of Foxp3 expression and SMAD signaling
[4]; [5]
  SMAD phosphorylation (phospho-SMAD): induced SMAD phosphorylation
Naive CD4+ T cells
  Foxp3 induction (Foxp3+ cells): modest up-regulation of Foxp3

B1: Activin A: dimeric member of the TGF-β Superfamily; two Activin βA subunits (protein, UniProt P08476 311-426, looked up)
Inhibin beta A chain: GLECDGKVNICCKKQFFVSFKDIGWNDWIIAPSGYHANYCEGECPSHIAGTSGSSLSFHSTVINHYRMRGHSPFANLKSCCVPTKLRPMSMLYYDDGQNIIKKDIQNMIVEECGCS
modifications: homodimer
[4]; combined Activin A and TGF-β treatment
  SMAD phosphorylation (phospho-SMAD): even further activation of the SMAD signaling pathway
[4]; [5]
  SMAD phosphorylation (phospho-SMAD): elevation of phospho-SMAD
Naive CD4+ T cells; combined treatment with Activin and TGF-β
  Foxp3+ T cell induction: synergistic promotion of Foxp3+ T cell induction
Naive CD4+ T cells
  Foxp3 induction (Foxp3+ cells): comparable population of Foxp3+ cells
